The results in this text go back to US20100129343A1, “Use Of A Compound For Enhancing The Expression Of Membrane Proteins On The Cell Surface” (Axentis Pharma AG, priority 2004, published 2010).

Common to all, as to type: cell-based
For series [1], the system named is CFTR-ΔF508. The series can be described thus: Immunoblot for GFP-tagged CFTR-ΔF508 expressed in HEK293 cells. The following applies: 16 h, endoglycosidase H treated extract. As to the method:
HEK293 cells (1*10^6 cells) were transfected with plasmids encoding CFTR or CFTR-ΔF508 (GFP-tagged) and/or co-transfected with effector plasmids. After 16h, the cells were treated with the varying concentrations of compounds. After 24h, the cells were harvested in phosphate-buffered saline, lysed by a freeze-thaw cycle and homogenized by sonication. The homogenate was resuspended in reducing Laemmli sample buffer (50 mM Tris.HCl, pH 6.8, 20% glycerol, 0.1% bromphenol blue, 2% SDS and 20 mM dithiothreitol); aliquots (15% of the original culture) were resolved on a denaturing polyacrylamide gel (monomer concentration in the stacking gel and in the running gel 4 and 8% respectively) and electrophoretically transferred to a nitrocellulose membrane. Immunodetection was done with an antiserum directed against GFP as the primary antibody and an anti-rabbit IgG coupled to horseradish peroxidase as the secondary antibody.
In a first example, Membranes from transfected cells were prepared and immunoblotted for GFP-tagged CFTR or CFTR-ΔF508, respectively (by using an antibody directed against the fluorescent protein).
The membrane extract was also treated endoglycosidase H. The rationale for this experiment is as follows: membrane proteins are core glycosylated in the endoplasmatic reticulum. Core gylcosylation is sensitive to endoglycosidase H. If the protein has reached the Golgi (and then trafficked to the plasma membrane), it acquires additional sugar moieties and becomes resistant to endoglycosidase H. It is evident from lane 3 in FIG. 6 that endoglycosidase H treatment reduces the apparent size of CFTR; thus, the bulk of the protein is still in the ER. The following lanes examine the expression of CFTR-ΔF508 (all extracts were treated with endoglycosidase H): lane 4 is the control, that is cells expressing CFTR-ΔF508; in lanes 5, 6, 7 and 8 cells expressing CFTR-ΔF508 were treated overnight (i.e. for 16 h) with 100 nM MG132, 20 μM kifunensine, 1 μM and 100 nM bortezomib, respectively.
For orientation: Immunoblotting shows a protein as a band on a membrane.

Series [2] concerns CFTR-ΔF508. The series can be described thus: FACS monitoring of GFP-tagged CFTR-ΔF508 expression in HEK293 cells. As to the method: (§1) Cultured HEK293 cells were transfected with plasmids encoding CFTR or CFTR-ΔF508 (GFP-tagged) and/or co-transfected with plasmids encoding USP4 (or an appropriate control plasmid) by using the CaPO4-precipitation method. Sixteen hours after transfection the cells were treated with varying concentrations of compounds. At a specific time point (here 24 h) the cells are trypsinized, fixed in ethanol, permeabilized and stained with propidium iodide (PI). The stained cells are subjected to FACS analysis
Because CFTR is tagged with a fluorescent protein, expression in individual cells can be monitored by fluorescence activated cell sorting (FACS). By contrast with fluorescence microscopy (where individual cells are picked), FACS allows to survey the entire cell population. In addition, FACS has the advantage that it allows for reasonable sample throughput; finally, automation and scale-up is readily possible. […]
The original data set is shown on the right hand side of the figures, respectively (see e.g. FIG. 7c): the x-axis is the propidium iodide fluorescence (note that the scale is linear). The y-axis is the GFP-fluorescence (=fluorescence associated with CFTR; note that the scale is logarithmic) and each dot corresponds to a cell. […]

A further series relates to HEK293 cells. Kind of series: FACS propidium iodide staining: cell cycle distribution / apoptosis of HEK293 cells. How it is done: as §1
Transiently transfected HEK293 cells were fixed in ethanol 24 h after transfection as mentioned above and then stained with propidium iodide to label the DNA: the rationale was to examine the distribution of cells in the cell cycle (=to see if the expression of CFTR or of CFTR-ΔF508 was toxic or if the compounds employed killed the cells/drove them into apoptosis).
One can plot the cell counts against the propidium iodide fluorescence of the transfected cells (such as shown in, for example, FIG. 7b): This gives a peak of cells (denoted by M1) that have a 2n content of DNA (G1-cells), a shoulder of cells that have a DNA content of larger than 2n (denoted by M3 and representing cells that are in S-phase) and a second peak of cells that have a DNA content of 4n (denoted by M2 and representing cells in G2 and M-phase).

The next series has as its target T1, A2A-receptor (Rattus norvegicus, UniProt P30543).
T1 construct: PC12 cells (that endogenously express the A2A-receptor); endogenous in cells; host or cells: PC12 (rat pheochromocytoma), membranes
Kind of series: [3H]ZM241385 saturation binding to membranes from PC12 cells (endogenous A2A-receptor). The following applies: 100 μM chloroquine for 3h. As to the method:
Membranes were prepared from PC12 cells, which had been incubated in the presence or in the absence of 50 μM MG132 or 100 μM chloroquine for 3h, and were incubated in buffer containing the indicated concentrations of [^3H]ZM241385 in the presence of 100 μM GTPγS.
Membranes (100 μg/assay) that had been prepared from PC12 cells or HEK293 cells transiently transfected with the appropriate plasmids were incubated in a final volume of 0.3 ml containing 50 mM Tris.HCl (pH 8.0), 1 mM EDTA, 5 mM MgCl2, 8 μg/ml adenosine deaminase and concentrations of [^3H]ZM241385 (specific activity ˜20 Ci/mmol) covering the range of 0.2 to 20 nM in the presence of 100 μM GTPγS (Klinger et al., 2002). After 60 min at room temperature, the reaction was terminated by rapid filtration over glass fiber filters. Nonspecific binding was determined in the presence of 10 μM XAC and amounted to 40% at the highest concentration of [^3H]ZM241385. The data points were fitted by non-linear regression to the equation describing a rectangular hyperbola. Assays were performed in duplicate.

Entries after “also recorded” stand apart in the source; their conditions may differ.

T1 sequence (P30543 whole entry): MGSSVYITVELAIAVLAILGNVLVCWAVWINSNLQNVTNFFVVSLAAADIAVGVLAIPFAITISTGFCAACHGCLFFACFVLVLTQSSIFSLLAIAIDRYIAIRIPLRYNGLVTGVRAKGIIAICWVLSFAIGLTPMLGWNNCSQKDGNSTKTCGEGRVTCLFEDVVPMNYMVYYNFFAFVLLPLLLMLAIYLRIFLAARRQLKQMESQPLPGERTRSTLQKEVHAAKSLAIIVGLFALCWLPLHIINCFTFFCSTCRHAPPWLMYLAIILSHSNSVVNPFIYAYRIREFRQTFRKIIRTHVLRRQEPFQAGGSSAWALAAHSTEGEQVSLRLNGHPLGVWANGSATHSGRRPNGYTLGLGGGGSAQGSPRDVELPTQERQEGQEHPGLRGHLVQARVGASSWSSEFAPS

On to `CC(C)C[C@H](NC(=O)[C@H](Cc1ccccc1)NC(=O)c1cnccn1)B(O)O` [Bortezomib, N-(2-pyrazine)carbonyl-L-phenylalanine-L-leucine-boronic acid], for which the figures for the “accumulation of CFTR-ΔF508 (intensity of staining vs control lane)” value in the series on CFTR-ΔF508 [1] (100 nM bortezomib) and with CFTR-ΔF508 [1] (1 μM bortezomib) were “led to the accumulation of CFTR-ΔF508; also recorded: more effective than 1 μM bortezomib” and “led to the accumulation of CFTR-ΔF508”, respectively. In addition, the CFTR-ΔF508-associated fluorescence entry in the series with CFTR-ΔF508 [2] (10 nM bortezomib) is “expression of CFTR is increased; also recorded: substantially increases the level of CFTR-ΔF508”; in the series on CFTR-ΔF508 [2] (100 nM bortezomib), “expression of CFTR is increased”. Moreover, in the series on HEK293 cells (10 nM bortezomib, CFTR-ΔF508 expressing cells), the cell cycle distribution result is “essentially the same as the one shown in control cells”. In addition, the “peak of the G1-cells (M1)” value in the series on HEK293 cells (100 nM Bortezomib, CFTR-ΔF508 expressing cells) is listed as “greatly reduced”; with HEK293 cells (1 μM Bortezomib, CFTR-ΔF508 expressing cells), “greatly reduced”. Also, the “number of cells with low propidium iodide fluorescence (apoptotic)” value with HEK293 cells (100 nM bortezomib) and with HEK293 cells (1 μM Bortezomib) was “number of cells with low propidium iodide fluorescence increases” in each case. In addition, in the series on HEK293 cells (within the therapeutic window (Bortezomib), very small dosage (MG132)), the “cell mortality / apoptosis, general statement” value is listed as “no increased cell mortality is observed”.

`CCN(CC)CCCC(C)Nc1ccnc2cc(Cl)ccc12` (stereo not drawn) [choloroquine, chloroquine]: the A2A-receptor levels entry at A2A-receptor is “did not affect the A2A-receptor levels”.

On to `O=C1N[C@@H]2[C@@H](O)[C@@H](O)[C@H](O)[C@@H](CO)N2C1=O` [kifunensine], for which, in the series on CFTR-ΔF508 [1] (20 μM kifunensine), the “accumulation of CFTR-ΔF508 (intensity of staining vs control lane)” value is on record as “led to the accumulation of CFTR-ΔF508”.
